In brackets after ≈: the same amount, converted by molar mass. Where a name gives a salt, the structure may show the parent alone. Read-outs that look alike come from different tables or passages of the source.
How the values were obtained:
[1] = cited from earlier work
[2] = parameters: method as in earlier work; settings: pure mangiferin; cited from earlier work
[3] = parameters: method as in PMID 26434292; settings: human plasma, mangiferin >90% purity, cited from earlier work
[4] = Stability of mangiferin in human plasma QC samples; type: in vitro ADME; settings: for Stability (%, Mean ± RSD) Autosampler / Stability (%, Mean ± RSD) Room Temp. / Stability (%, Mean ± RSD) Freeze–Thaw: human plasma QC, n = 6; for Stability (%, Mean ± RSD) Autosampler: autosampler 4 h at 12 °C; for Stability (%, Mean ± RSD) Room Temp.: room temperature for 4 h; for Stability (%, Mean ± RSD) Freeze–Thaw: three cycles of freezing (−80 °C) and thawing (20 °C)
Description: Quality control (QC) samples were prepared in the same manner and evaluated at low, medium, and high concentrations: 50, 500, and 1000 ng/mL. Blank plasma samples were also included in the injection series to account for any potential carryover. The stability of mangiferin in human plasma was evaluated by analyzing the same three levels of QC samples (n = 6) after storage at room temperature for 4 h, in the autosampler for 4 h at 12 °C, and after three cycles of freezing (−80 °C) and thawing (20 °C).

[5] = test system: rats; settings: dose of 400 mg of the purified salt; cited from earlier work
[6] = test system: mice; settings: cited from earlier work
[7] = parameters: method as in doi:10.1155/2019/9272710; settings: male Sprague Dawley rats; cited from earlier work

O=c1c2cc(O)c(O)cc2oc2cc(O)c([C@@H]3O[C@H](CO)[C@@H](O)[C@H](O)[C@H]3O)c(O)c12 [Mangiferin]
increase of exposure on inhibition of the transporter P-gp ([1]; pure mangiferin): approximately threefold
aqueous solubility [2]: 111 µg/mL (≈ 263 µM)
Cmax ([3]; 100 mg oral dose): 19.94 ng/mL
Cmax ([3]; 900 mg oral dose): 38.64 ng/mL
stability throughout the analytical process ([4]; human plasma QC samples): stable
Stability (%, Mean ± RSD) Autosampler ([4]; 1.000 ng/mL as printed): 101.63 ± 8.50%
Stability (%, Mean ± RSD) Room Temp. ([4]; 1.000 ng/mL as printed): 101.75 ± 8.11%
Stability (%, Mean ± RSD) Freeze–Thaw ([4]; 1.000 ng/mL as printed): 102.64 ± 1.05%
Stability (%, Mean ± RSD) Autosampler ([4]; 50 ng/mL): 109.92 ± 2.77%
Stability (%, Mean ± RSD) Room Temp. ([4]; 50 ng/mL): 103.10 ± 3.66%
Stability (%, Mean ± RSD) Freeze–Thaw ([4]; 50 ng/mL): 108.60 ± 3.87%
Stability (%, Mean ± RSD) Autosampler ([4]; 500 ng/mL): 102.02 ± 8.81%
Stability (%, Mean ± RSD) Room Temp. ([4]; 500 ng/mL): 101.27 ± 9.08%
Stability (%, Mean ± RSD) Freeze–Thaw ([4]; 500 ng/mL): 101.68 ± 0.91%

O=c1c2cc(O)c(O)cc2oc2cc(O)c([C@@H]3O[C@H](CO)[C@@H](O)[C@H](O)[C@H]3O)c(O)c12 [mangiferin monosodium salt, Monosodium mangiferin]
safety in rats [5]: generally safe
maximum tolerated dose (MTD) [6]: 12,000 mg/kg
relative bioavailability of the salt vs pure mangiferin based on AUC0–∞ [7]: 5.7 times

O=c1c2cc(O)c(O)cc2oc2cc(O)cc(O)c12 [norathyriol]
Tmax ([1]; in vivo): ~15 h
absorption of norathyriol as fraction of the mangiferin dose ([1]; in vivo): approximately 0.1%

From publication PMC11820055, “Human Pharmacokinetic Profiling and Comparative Analysis of Mangiferin and Its Monosodium Derivative from Mangifera indica Extracts Using UHPLC-MS/MS with ^1H NMR and MALDI-TOF Confirmation” (Molecules, 2025)
